{"source": "patent US7807877B2", "about": "“Genetic sequences having methyltransferase activity and uses therefor” (International Flower Developments Pty. Ltd., priority 2002, dated 2010)", "key": {"[1]": {"assay": "Reconstruction experiments: anthocyanins added to petal juice of Medeo roses", "type": "physicochemical, Rosa hybrida", "details": "pH 4.9", "method": "The rose cultivar Medeo generally produces cream-colored to pale apricot flowers (RHSCC 158C to 159A). […] The estimated vacuolar pH of Medeo petals is around 4.6. The petal juice of Medeo roses was extracted by grinding one petal with 50 μL of water using a mortar and pestle. The petal juice was collected and mixed with 10-20 μL of 1-2 mg/g delphinidin 3-glucoside, delphinidin 3,5-diglucoside and malvidin 3,5-diglucoside. The colors observed were described according to the Royal Horticultural Society Color Charts (RHSCC) (The Royal Horticultural Society, London) (Table 8)."}, "Petunia FMT (E20) [2]": {"tested_on": "Petunia FMT (E20)", "assay": "Methyltransferase assay (14C-SAM, TLC) of crude homogenate of E. coli containing pCGP3086", "type": "biochemical, Petunia hybrida", "set-up": "key to Petunidin (product on TLC) / Malvidin (product on TLC): yes = detection of product on TLC; no = no reaction observed as determined by absence of product", "method": "10 mLs of LB containing ampicillin at 100 μg/mL and kanamycin at 25 μg/mL. (LB/Amp100+Kan25) were inoculated with a single colony of pCGP3086 or pQE30 in M15 (pREP4) cells. […] IPTG was then added to a final concentration of 1 mM and the culture was further incubated at 30° C. with shaking for 8 hours. The cells were pelleted by centrifugation at 3500 rpm for 10 minutes at 4° C. The pellet was resuspended in 1 mL of 0.1 M NaPi, pH 7.5, 4 mM MgCl2. […] The mixture was then sonicated for two bursts of 10 seconds at output 2-3 and then incubated on ice for 30 minutes. The cell debris was pelleted by centrifugation at 14,000 rpm for 20 minutes at 4° C. The supernatant was passed through a NAP-10 column (Pharmacia) and 1.5 mL of the sample collected in 0.1 M NaPi, pH 7.5, 4 mM MgCl2. […] (1983), supra. Methyltransferase assays were set up according to Table 10 in a total reaction volume of 50 μL. […] The assay reactions were incubated at 30° C. for 30 minutes. Fifty microlitres of a chloroform mix (CHCl3:methanol/1% HCl, 2:1) was added and the mixture was then vortexed to stop the reactions. […] The tube was then placed in a boiling waterbath for 30 minutes and the contents subsequently desiccated under vacuum."}, "Torenia FMT (TFMT) [3]": {"tested_on": "Torenia FMT (TFMT)", "assay": "Methyltransferase assay (14C-SAM, TLC) of crude homogenate of E. coli containing pCGP3090", "type": "biochemical, Torenia hybrida", "set-up": "key to Petunidin (product on TLC) / Malvidin (product on TLC): yes = detection of product on TLC; no = no reaction observed as determined by absence of product", "method": "(§1) The assay reactions were incubated at 30° C. for 30 minutes. Fifty microlitres of a chloroform mix (CHCl3:methanol/1% HCl, 2:1) was added and the mixture was then vortexed to stop the reactions. The phases were separated by centrifugation at 13,000 rpm for 5 minutes and 50 μL of the upper phase was transferred into a clean tube and the contents subsequently hydrolysed by the addition of 12.5 μL of 10M HCl. The tube was then placed in a boiling waterbath for 30 minutes and the contents subsequently desiccated under vacuum. The residue was resuspended in 2-3 μL of methanol/1% HCl and spotted onto a TLC plate alongside standard samples of petunidin, malvidin and delphinidin. The anthocyanidins were separated in a Forestal system (HOAc:water:HCl; 30:10:3) (Markham, Techniques of flavonoid identification, Academic Press, London, 1982) and the TLC was exposed to an autoradiographic film (Kodak) for 16 hours at −70° C.\nThe confirmation of recombinant protein expression and preparation of crude protein extracts and subsequent determination of methyltransferase activity were as described for the analysis of the Petunia E20 cDNA clone (PFMT) (described above in Example 7).\nThe enzyme activities of the protein encoded by the Torenia FMT cDNA clone in pCGP3090 along with that of the Petunia FMT (E20) clone in pCGP3086 were assessed using the substrates delphinidin 3-glucoside and delphinidin 3-rutinoside under assay conditions as described in Jonsson et al. (1983), supra and in Example 7 of this specification.\nMethyltransferase assays were set up according to Table 15 in a total reaction volume of 50 μL.\nReaction conditions were as described previously (Example 7)."}, "Petunia FMT (E20) [4]": {"tested_on": "Petunia FMT (E20)", "assay": "HPLC assay of methyltransferase activity, E. coli extract containing pCGP3086", "type": "biochemical, Petunia hybrida", "method": "as §1\n(§2) Anthocyanidins in the reaction mixture were analysed by HPLC via gradient elution using gradient conditions of 50% B to 60% B over 10 minutes, then 60% B for 10 minutes and finally 60% B to 100% B over 5 minutes where solvent A consisted of TFA:H2O (5:995) and solvent B consisted of acetonitrile:TFA:H2O (500:5:495). An Asahi Pac ODP-50 cartridge column (250 mm×4.6 mm ID) was used for the reversed phase chromatographic separations. […].\n(§3) The enzyme activities of the peptides encoded by Petunia and Torenia FMT cDNA clones in pCGP3086 and pCGP3090, respectively were further assessed using the substrates delphinidin 3-glucoside and delphinidin 3-rutinoside and delphinidin 3,5-diglucoside under assay conditions as previously described (Table 15, Example 9) except that the ^14C-labelled SAM was replaced with non radioactive SAM at 2 mg/mL and the substrates (delphinidin 3-glucoside and delphinidin 3-rutinoside and delphinidin 3,5-diglucoside) at 2 mg/mL."}, "Torenia FMT (TFMT) [5]": {"tested_on": "Torenia FMT (TFMT)", "assay": "HPLC assay of methyltransferase activity, E. coli extract containing pCGP3090", "type": "biochemical, Torenia hybrida", "method": "as §1, §2, §3"}, "[6]": {"details": "pCGP3086 crude homogenate + 14C-SAM (Table 16, positive control)"}, "[7]": {"details": "pCGP3086 crude homogenate + 14C-SAM, 30° C., 30 minutes (Table 11)"}, "[8]": {"details": "pCGP3090 crude homogenate + 14C-SAM (Table 16)"}, "[9]": {"details": "pCGP3086 (PFMT), percentage of total anthocyanidins, duplicate a/b"}, "[10]": {"details": "pCGP3086, substrate 2 mg/mL, SAM 2 mg/mL, duplicate a/b"}, "[11]": {"details": "pCGP3090 (TFMT), percentage of total anthocyanidins, duplicate a/b"}, "[12]": {"details": "pCGP3090, substrate 2 mg/mL, SAM 2 mg/mL, duplicate a/b"}}, "note": "Values joined by “and” are separate entries in the source; they are usually repeats but may differ in a detail not shown here. Equal values may be shown once.", "data": [{"smiles": "OC[C@H]1O[C@@H](Oc2cc3c(O)cc(O)cc3[o+]c2-c2cc(O)c(O)c(O)c2)[C@H](O)[C@@H](O)[C@@H]1O", "note": "[D3G, delphinidin 3-glucoside]", "values": [{"measurement": "COLOR", "setting": "[1]", "value": "red-purple"}, {"measurement": "RHSCC#", "setting": "[1]", "value": 74, "unit": "A"}, {"measurement": "Petunidin and malvidin, the methylated derivatives of delphinidin, in assay reactions", "setting": "Petunia FMT (E20) [2]; crude homogenates from pCGP3086 cells, 14C-SAM", "value": "detected"}, {"measurement": "Malvidin (product on TLC)", "setting": "Petunia FMT (E20) [2]; [6]", "value": "yes"}, {"measurement": "Petunidin (product on TLC)", "setting": "Petunia FMT (E20) [2]; [6]", "value": "yes"}, {"measurement": "Malvidin (product on TLC)", "setting": "Petunia FMT (E20) [2]; [7]", "value": "yes"}, {"measurement": "Petunidin (product on TLC)", "setting": "Petunia FMT (E20) [2]; [7]", "value": "yes"}, {"measurement": "Petunidin and malvidin, the methylated derivatives of delphinidin, in assay reactions", "setting": "Torenia FMT (TFMT) [3]; crude homogenates from pCGP3090 (containing TFMT), 14C-SAM", "value": "detected"}, {"measurement": "Malvidin (product on TLC)", "setting": "Torenia FMT (TFMT) [3]; [8]", "value": "yes"}, {"measurement": "Petunidin (product on TLC)", "setting": "Torenia FMT (TFMT) [3]; [8]", "value": "yes"}, {"measurement": "product of flavonoid methyltransferase activity with the substrate", "setting": "Petunia FMT (E20) [4]; Petunia FMT (E20) in pCGP3086, to a lesser degree malvidin", "value": "predominantly petunidin"}, {"measurement": "Predominant FMT Activity", "setting": "Petunia FMT (E20) [4]; pCGP3086", "value": "3′FMT"}, {"measurement": "% of anthocyanidin detected cya", "setting": "Petunia FMT (E20) [4]; [9]", "value": "11.8% and 9.7%"}, {"measurement": "% of anthocyanidin detected del", "setting": "Petunia FMT (E20) [4]; [9]", "value": "35.5% and 31.4%"}, {"measurement": "% of anthocyanidin detected mal", "setting": "Petunia FMT (E20) [4]; [9]", "value": "6.0% and 6.5%"}, {"measurement": "% of anthocyanidin detected peo", "setting": "Petunia FMT (E20) [4]; [9]", "value": "2.7% and 3.0%"}, {"measurement": "% of anthocyanidin detected pet", "setting": "Petunia FMT (E20) [4]; [9]", "value": "44.0% and 49.4%"}, {"measurement": "Anthocyanidins (mg/g) Cya", "setting": "Petunia FMT (E20) [4]; [10]", "value": "2.4 mg/g and 2.0 mg/g"}, {"measurement": "Anthocyanidins (mg/g) Del", "setting": "Petunia FMT (E20) [4]; [10]", "value": "7.1 mg/g and 6.4 mg/g"}, {"measurement": "Anthocyanidins (mg/g) Mal", "setting": "Petunia FMT (E20) [4]; [10]", "value": "1.2 mg/g and 1.3 mg/g"}, {"measurement": "Anthocyanidins (mg/g) Peo", "setting": "Petunia FMT (E20) [4]; [10]", "value": "0.5 mg/g and 0.6 mg/g"}, {"measurement": "Anthocyanidins (mg/g) Pet", "setting": "Petunia FMT (E20) [4]; [10]", "value": "8.8 mg/g and 10.0 mg/g"}, {"measurement": "product of flavonoid methyltransferase activity with the substrate", "setting": "Torenia FMT (TFMT) [5]; Torenia FMT in pCGP3090, to a lesser degree petunidin", "value": "predominantly malvidin"}, {"measurement": "Predominant FMT Activity", "setting": "Torenia FMT (TFMT) [5]; pCGP3090", "value": "3′5′FMT"}, {"measurement": "% of anthocyanidin detected cya", "setting": "Torenia FMT (TFMT) [5]; [11]", "value": "4.5% and 3.6%"}, {"measurement": "% of anthocyanidin detected del", "setting": "Torenia FMT (TFMT) [5]; [11]", "value": 7.8, "unit": "%"}, {"measurement": "% of anthocyanidin detected mal", "setting": "Torenia FMT (TFMT) [5]; [11]", "value": "74.0% and 75.2%"}, {"measurement": "% of anthocyanidin detected peo", "setting": "Torenia FMT (TFMT) [5]; [11]", "value": "8.5% and 8.0%"}, {"measurement": "% of anthocyanidin detected pet", "setting": "Torenia FMT (TFMT) [5]; [11]", "value": "5.1% and 5.4%"}, {"measurement": "Anthocyanidins (mg/g) Cya", "setting": "Torenia FMT (TFMT) [5]; [12]", "value": "1.0 mg/g and 0.9 mg/g"}, {"measurement": "Anthocyanidins (mg/g) Del", "setting": "Torenia FMT (TFMT) [5]; [12]", "value": "1.8 mg/g and 1.9 mg/g"}, {"measurement": "Anthocyanidins (mg/g) Mal", "setting": "Torenia FMT (TFMT) [5]; [12]", "value": "17.1 mg/g and 18.1 mg/g"}, {"measurement": "Anthocyanidins (mg/g) Peo", "setting": "Torenia FMT (TFMT) [5]; [12]", "value": "2.0 mg/g and 1.9 mg/g"}, {"measurement": "Anthocyanidins (mg/g) Pet", "setting": "Torenia FMT (TFMT) [5]; [12]", "value": "1.2 mg/g and 1.3 mg/g"}]}]}
